Test results from patent US20070135514A1, “Methods for the identification of agents for the treatment of seizures, neurological diseases, endocrinopathies and hormonal diseases” (priority 2002, published 2007).
Where two headings read alike, the source gives them in different places.

How the values were obtained:
[1] = target: T1, levetiracetam binding site (LBS) (Rattus norvegicus, UniProt Q02563); conditions: cited from earlier work
T1 construct: host or cells: crude rat brain membranes (Noyer et al. 1995; Gillard et al. 2003)

hSV2A = target: T2, hSV2A (Homo sapiens, UniProt Q7L0J3); experiment: [3H]ucb 30889 binding to hSV2A expressed in COS-7 cells; conditions: for competition with [3H]ucb 30889 for binding to SV2A: concentrations up to 100 μM
T2 construct: expressed in transfected cells; host or cells: COS-7 cells, transient transfection (pDEST 12.2 Gateway vector, CMV promoter)

[2] = tested on: Rat cerebellar granule neurons; experiment: [3H]ucb 30889 binding in rat cerebellar granule neurons
Method: (§1) To identify and characterize the LBS in situ, [^3H]ucb 30889 was used to map the LBS within the brain and to study both its cellular and subcellular distribution. For rat brain autoradiography, 25 μm slices were incubated with 1.3 nM [^3H]ucb 30889 for 120 min at 4° C. in 50 mM Tris-HCl buffer (pH 7.4). Binding assays with rat brain membranes and various neuronal cell lines were performed under similar conditions. […] For photolabeling, membranes were incubated with 40 nM [^3H]ucb 30889 for 120 min at 4° C. in the same buffer, followed by irradiation with UV-light for 30 min (Fuks et al., Eur. J. Pharmacol. 478:11-19 (2003)).

SV2A in native membrane = target: T3, SV2A in native membrane (Rattus norvegicus, UniProt Q02563); experiment: Scatchard analysis of [3H]ucb 30889 binding, native rat brain membrane
T3 construct: from tissue

COS-7 = experiment: [3H]ucb 30889 binding in untransfected COS-7 cells; conditions: untransfected COS-7 cell line
Method: as §1
In addition, a PC12 cell line subclone, PC12a, which is low in LBS, was used to establish a pool of PC12 cells expressing hSV2A under stable antibiotic selection.

hSV2C = target: T4, hSV2C (Homo sapiens, UniProt Q496J9); experiment: [3H]ucb 30889 binding to hSV2C expressed in COS-7 cells; conditions: transient COS-7 system
T4 construct: expressed in transfected cells; host or cells: COS-7 cells, transient expression
T4 sequence (Q496J9 1-727): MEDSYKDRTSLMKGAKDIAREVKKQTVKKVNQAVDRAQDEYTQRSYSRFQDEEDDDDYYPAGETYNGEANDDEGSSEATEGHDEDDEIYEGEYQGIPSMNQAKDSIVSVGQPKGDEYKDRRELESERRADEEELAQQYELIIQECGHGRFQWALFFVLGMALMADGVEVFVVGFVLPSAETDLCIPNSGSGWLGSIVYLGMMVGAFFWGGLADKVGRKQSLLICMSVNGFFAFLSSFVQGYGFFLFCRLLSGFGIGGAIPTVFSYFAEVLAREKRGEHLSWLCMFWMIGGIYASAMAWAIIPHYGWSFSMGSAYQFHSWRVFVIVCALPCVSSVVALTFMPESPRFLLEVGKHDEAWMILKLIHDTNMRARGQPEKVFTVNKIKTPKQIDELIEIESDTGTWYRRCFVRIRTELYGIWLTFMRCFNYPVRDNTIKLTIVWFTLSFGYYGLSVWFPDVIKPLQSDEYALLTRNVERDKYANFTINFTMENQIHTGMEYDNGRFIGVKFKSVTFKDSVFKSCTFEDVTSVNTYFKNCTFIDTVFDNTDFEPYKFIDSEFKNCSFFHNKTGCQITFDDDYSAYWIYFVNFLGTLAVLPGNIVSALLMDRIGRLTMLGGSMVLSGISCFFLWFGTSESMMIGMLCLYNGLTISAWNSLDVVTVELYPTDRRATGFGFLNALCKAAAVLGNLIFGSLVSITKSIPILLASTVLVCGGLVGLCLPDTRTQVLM

PC12 = experiment: [3H]ucb 30889 binding in PC12 cells; set-up: species or system rat
Method: as §1

soluble SV2A = target: T5, soluble SV2A (Rattus norvegicus, UniProt Q02563); experiment: [3H]ucb 30889 binding to n-dodecyl-β-D-maltoside solubilized SV2A; conditions: soluble protein in n-dodecyl-β-D-maltoside; read-out: KD (Scatchard analysis)
T5 construct: from tissue; host or cells: supernatant of detergent-solubilised rat brain membranes
Method: The rat brain membranes were diluted in a solubilization buffer (Tris-HCl 20 mM pH 7.4, 0.25 M sucrose, protease inhibitors Complete Roche) containing n-dodecyl-β-D-maltoside 15 mM and incubated for two hours at 4° C. Subsequently, the solution was centrifuged at 4° C. for one hour at 100,000 g. The soluble SV2A was found in the supernatant as detected by western blot using anti-SV2A antibodies (FIG. 21A). The supernatants were incubated with [^3H]ucb 30889 as described. […] Thus, the binding properties of the soluble SV2A are similar to the membrane-bound native form indicative that the soluble protein maintains its native structural conformation in n-dodecyl-β-D-maltoside.

hSV2B = target: T6, hSV2B (Homo sapiens, UniProt Q7L1I2); experiment: [3H]ucb 30889 binding to hSV2B expressed in COS-7 cells; conditions: transient COS-7 system
T6 construct: expressed in transfected cells; host or cells: COS-7 cells, transient expression

[3] = target: T1, levetiracetam binding site (LBS); experiment: [3H]ucb 30889 binding to crude rat brain membranes (kinetic, saturation, competition)
Method: (§2) Binding experiments were conducted on crude rat brain membranes at 4° C. as described in Noyer et al. (Euro. J. Pharmacol. 286:137-146 (1995)). Incubation time for equilibrium studies was 120 min. For kinetic and competition studies, [^3H]ucb 30889 (30 Ci/mmol) was used at a concentration of 1.3 nM in 0.5 ml of a Tris-HCl (pH 7.4) buffer containing 2 mM Mg^2+. Localization of the LBS in brain substructures was assessed by autoradiography on 25 μm thick slices incubated under similar conditions. Slides were then washed twice for 10 min at 4° C. in 50 mM Tris-HCl (pH 7.4) containing 0.5% BSA, dried and exposed for 3 weeks to [^3H]Hyperfilm at −20° C. Non-specific binding (NSB) was determined by the inclusion of 1 mM LEV during the incubation period.

[4] = tested on: LBS in peripheral tissues; experiment: [3H]ucb 30889 specific binding in peripheral tissues; conditions: 150 μg protein/assay, 1.3 nM radioligand; detection limit Bmax 200 fmol/mg protein
Method: as §2
The limit of detection under the experimental conditions (150 μg of protein/assay and 1.3 nM of radioligand) was a Bmax of 200 fmol/mg protein.

Mouse cortical neurons = experiment: [3H]ucb 30889 binding in mouse cortical neurons
Method: as §1

PC12bs cells (LBS) = experiment: Intact cell [3H]ucb 30889 binding in PC12bs cells; set-up: species or system rat; conditions: identical conditions
Method: In a binding experiment, specific binding was measured of [^3H]ucb 30889 to COS-7 cells that have either been transfected with SV2A-12.2, or as controls, a β-gal expressing vector, or cells that have not been transfected (FIG. 13). […] The cells were incubated at 4° C. for 2 hours, and then washed rapidly with ice-cold PBS. The cells were lysed on the plate, transferred to scintillation vials with scintillation fluid and counted for ^3H decay emission. […] In identical intact cell binding experiments using PC12bs cells, known to express the LBS, a 1.5 to 2-fold difference in CPM between the ‘hot’ and ‘hot+cold’ samples is typically seen, as compared to the 5-fold difference seen here.

[5] = tested on: refractory partial seizures; conditions: adjunctive therapy; cited from earlier work
audiogenic seizures = conditions: in vivo; cited from earlier work
[6] = rat brain cortex, 4° C., fast component (25 to 50% of the sites)
[7] = rat brain cortex, 4° C., slow component

T2 sequence (Q7L0J3 whole entry): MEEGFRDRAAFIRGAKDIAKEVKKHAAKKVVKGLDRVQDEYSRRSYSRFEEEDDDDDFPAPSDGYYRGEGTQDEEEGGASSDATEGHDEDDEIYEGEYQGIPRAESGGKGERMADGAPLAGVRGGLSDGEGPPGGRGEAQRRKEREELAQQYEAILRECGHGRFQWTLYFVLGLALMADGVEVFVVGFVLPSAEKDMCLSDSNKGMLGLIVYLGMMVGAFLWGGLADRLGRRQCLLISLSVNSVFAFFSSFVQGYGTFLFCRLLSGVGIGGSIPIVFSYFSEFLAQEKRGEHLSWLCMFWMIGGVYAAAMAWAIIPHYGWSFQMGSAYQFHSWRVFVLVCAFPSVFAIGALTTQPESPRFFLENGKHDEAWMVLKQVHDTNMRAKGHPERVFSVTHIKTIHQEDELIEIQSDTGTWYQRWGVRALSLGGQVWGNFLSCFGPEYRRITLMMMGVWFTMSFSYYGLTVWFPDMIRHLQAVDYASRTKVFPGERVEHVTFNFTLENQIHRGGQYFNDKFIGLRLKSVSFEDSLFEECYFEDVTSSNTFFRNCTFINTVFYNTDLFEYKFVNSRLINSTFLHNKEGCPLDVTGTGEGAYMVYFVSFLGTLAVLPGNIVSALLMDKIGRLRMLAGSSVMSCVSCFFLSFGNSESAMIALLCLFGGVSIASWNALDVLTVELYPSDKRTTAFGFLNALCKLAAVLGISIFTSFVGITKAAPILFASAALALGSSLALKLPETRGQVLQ
T1 sequence (Q02563 whole entry): as the sequence (Q7L0J3 whole entry) above, with D53E, S62A, T71A, E144D, A154T, G440S, S482A, I572V, M634L counted along it
T5 sequence (Q02563 whole entry): as the sequence (Q7L0J3 whole entry) above, with D53E, S62A, T71A, E144D, A154T, G440S, S482A, I572V, M634L counted along it
T3 sequence (Q02563 whole entry): as the sequence (Q7L0J3 whole entry) above, with D53E, S62A, T71A, E144D, A154T, G440S, S482A, I572V, M634L counted along it
T6 sequence (Q7L1I2 whole entry): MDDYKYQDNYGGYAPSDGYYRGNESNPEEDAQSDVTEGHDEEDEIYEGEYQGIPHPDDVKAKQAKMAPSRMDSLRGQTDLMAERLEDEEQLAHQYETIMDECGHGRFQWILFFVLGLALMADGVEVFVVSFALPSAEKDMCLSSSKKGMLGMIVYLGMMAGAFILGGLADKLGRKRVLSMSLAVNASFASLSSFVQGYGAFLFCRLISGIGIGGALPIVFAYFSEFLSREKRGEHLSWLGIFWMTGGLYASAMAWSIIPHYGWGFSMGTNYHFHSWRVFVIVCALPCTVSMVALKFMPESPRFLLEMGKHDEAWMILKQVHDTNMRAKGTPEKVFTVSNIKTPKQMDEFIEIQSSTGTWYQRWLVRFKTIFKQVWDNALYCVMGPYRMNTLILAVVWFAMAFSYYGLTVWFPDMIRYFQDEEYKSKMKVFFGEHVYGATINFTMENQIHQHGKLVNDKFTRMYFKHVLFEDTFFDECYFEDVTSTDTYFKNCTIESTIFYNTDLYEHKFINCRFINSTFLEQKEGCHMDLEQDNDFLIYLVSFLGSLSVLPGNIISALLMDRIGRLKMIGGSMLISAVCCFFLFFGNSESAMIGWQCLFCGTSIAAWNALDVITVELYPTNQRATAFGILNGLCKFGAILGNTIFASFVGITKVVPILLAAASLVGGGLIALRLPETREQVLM

Compound	displacement of LEV binding [1]	competition with [3H]ucb 30889 for binding to SV2A (hSV2A)	further results
NCC1(CC(=O)O)CCCCC1 [gabapentin]	do not displace LEV binding	None of the AEDs at concentrations up to 100 μM, competed	–
CCCC(C)C1(CC)C(=O)NC(=O)NC1=O (stereo not drawn) [pentobarbital]	competed with LEV	–	–
C1CCc2nnnn2CC1 [pentylenetetrazole]	competed with LEV	–	–
CCCC(CCC)C(=O)O [valproate]	do not displace LEV binding	None of the AEDs at concentrations up to 100 μM, competed	–
COc1ccc(C(=O)N2CCCC2=O)cc1 [aniracetam]	displaced LEV binding	–	–
CCC1(C)CC(=O)NC(=O)C1 [bemegride]	competed with LEV	–	–
Cc1ccsc1C(=CCCN1CCC[C@@H](C(=O)O)C1)c1sccc1C [tiagabine]	do not displace LEV binding	None of the AEDs at concentrations up to 100 μM, competed	–
O=C1CN=C(c2ccccc2Cl)c2cc([N+](=O)[O-])ccc2N1 [clonazepam]	do not displace LEV binding	–	–
CC[C@@H](C(N)=O)N1CC(c2cccc(N=[N+]=[N-])c2)CC1=O (stereo partly drawn) [ucb 30889, (2S)-2-[4-(3-azidophenyl)-2-oxopyrrolidin-1-yl]butanamide]	–	–	Bmax [2]: 0.7 pmol/mg protein; Kd [2]: 59 nM; Kd (SV2A in native membrane): 30 nM; binding above background (COS-7): no binding above background; binding above background (hSV2C): no binding above background; Bmax (PC12): 1.4 pmol/mg; Kd (PC12): 40 nM; Kd (soluble SV2A): 82 nM; binding above background (hSV2B): no binding above background; half-time for association, fast component [3, 6]: 3 ± 2 min; half-time for dissociation, fast component [3, 6]: 4 ± 1 min; half-time for association, slow component [3, 7]: 47 ± 13 min; half-time for dissociation, slow component [3, 7]: 61 ± 15 min; Bmax (saturation binding) ([3]; rat brain membranes, substance used as radioligand): 5054±704 fmol/mg protein; specific binding in peripheral tissues [4]: could not be detected; Bmax (Mouse cortical neurons): 1.4 pmol/mg protein; Kd (Mouse cortical neurons): 34 nM; difference in CPM between 'hot' and 'hot+cold' samples (PC12bs cells (LBS)): 1.5 to 2 fold; difference in CPM between 'hot' and 'hot+cold' samples (hSV2A; COS-7 transfected with SV2A-12.2, 1 nM radioligand ± 50 μM cold Levetiracetam, 4° C., 2 hours): 5 fold
CC[C@@H](C(N)=O)N1CCCC1=O [ucb L060]	–	–	affinity to hSV2A compared with LEV (hSV2A; displacement of [3H]ucb 30889, COS-7): significantly less affinity
O=C1NC(=O)C(c2ccccc2)(c2ccccc2)N1 [phenytoin]	do not displace LEV binding	None of the AEDs at concentrations up to 100 μM, competed	–
picrotoxin	do not displace LEV binding	–	–
CC[C@@H](C(N)=O)N1CCCC1=O [levetiracetam, (S)-α-ethyl-2-oxo-1-pyrrolidine acetamide]	–	–	affinity for the binding site ([1]; listed as LEV): modest affinity; affinity for the binding site ([1]; listed as [^3H]LEV): only micromolar affinity; control of refractory partial seizures in adults [5]: both effective and well tolerated; suppression of seizures in the audiogenic-susceptible mouse (audiogenic seizures): unexpected potent ability
NS(=O)(=O)Cc1noc2ccccc12 [zonisamide]	do not displace LEV binding	None of the AEDs at concentrations up to 100 μM, competed	–
C=CC(N)CCC(=O)O (stereo not drawn) [vigabatrin]	do not displace LEV binding	None of the AEDs at concentrations up to 100 μM, competed	–
NC(=O)OCC(COC(N)=O)c1ccccc1 [felbamate]	do not displace LEV binding	None of the AEDs at concentrations up to 100 μM, competed	–
CCC1(C)CC(=O)NC1=O (stereo not drawn) [ethosuximide]	competed with LEV	None of the AEDs at concentrations up to 100 μM, competed	–
NC(=O)N1c2ccccc2C=Cc2ccccc21 [carbamazepine]	do not displace LEV binding	None of the AEDs at concentrations up to 100 μM, competed	–
